Assay results: US20220356174A1, “PYRIDIN-2-ONE COMPOUNDS USEFUL AS SMARCA2 ANTAGONISTS” (Epizyme, Inc., priority 2018, published 2022)
Read-outs that look alike come from different tables or passages of the source.

Tests used:
[1] = molecular target: T1, FL-SMARCA2 (full-length human SMARCA2 isoform 1) (Homo sapiens, UniProt P51531); experiment: SMARCA2 ATPase activity assay (ADP-Glo, chicken mononucleosome substrate); assay type: biochemical; details: ATP 250 uM
T1 construct: FLAG tag (YKDDDDK) (C); made in house; host or cells: Sf21 insect cells (baculovirus, pFastBacI)
T1 sequence (P51531 with tags, fused parts or gaps): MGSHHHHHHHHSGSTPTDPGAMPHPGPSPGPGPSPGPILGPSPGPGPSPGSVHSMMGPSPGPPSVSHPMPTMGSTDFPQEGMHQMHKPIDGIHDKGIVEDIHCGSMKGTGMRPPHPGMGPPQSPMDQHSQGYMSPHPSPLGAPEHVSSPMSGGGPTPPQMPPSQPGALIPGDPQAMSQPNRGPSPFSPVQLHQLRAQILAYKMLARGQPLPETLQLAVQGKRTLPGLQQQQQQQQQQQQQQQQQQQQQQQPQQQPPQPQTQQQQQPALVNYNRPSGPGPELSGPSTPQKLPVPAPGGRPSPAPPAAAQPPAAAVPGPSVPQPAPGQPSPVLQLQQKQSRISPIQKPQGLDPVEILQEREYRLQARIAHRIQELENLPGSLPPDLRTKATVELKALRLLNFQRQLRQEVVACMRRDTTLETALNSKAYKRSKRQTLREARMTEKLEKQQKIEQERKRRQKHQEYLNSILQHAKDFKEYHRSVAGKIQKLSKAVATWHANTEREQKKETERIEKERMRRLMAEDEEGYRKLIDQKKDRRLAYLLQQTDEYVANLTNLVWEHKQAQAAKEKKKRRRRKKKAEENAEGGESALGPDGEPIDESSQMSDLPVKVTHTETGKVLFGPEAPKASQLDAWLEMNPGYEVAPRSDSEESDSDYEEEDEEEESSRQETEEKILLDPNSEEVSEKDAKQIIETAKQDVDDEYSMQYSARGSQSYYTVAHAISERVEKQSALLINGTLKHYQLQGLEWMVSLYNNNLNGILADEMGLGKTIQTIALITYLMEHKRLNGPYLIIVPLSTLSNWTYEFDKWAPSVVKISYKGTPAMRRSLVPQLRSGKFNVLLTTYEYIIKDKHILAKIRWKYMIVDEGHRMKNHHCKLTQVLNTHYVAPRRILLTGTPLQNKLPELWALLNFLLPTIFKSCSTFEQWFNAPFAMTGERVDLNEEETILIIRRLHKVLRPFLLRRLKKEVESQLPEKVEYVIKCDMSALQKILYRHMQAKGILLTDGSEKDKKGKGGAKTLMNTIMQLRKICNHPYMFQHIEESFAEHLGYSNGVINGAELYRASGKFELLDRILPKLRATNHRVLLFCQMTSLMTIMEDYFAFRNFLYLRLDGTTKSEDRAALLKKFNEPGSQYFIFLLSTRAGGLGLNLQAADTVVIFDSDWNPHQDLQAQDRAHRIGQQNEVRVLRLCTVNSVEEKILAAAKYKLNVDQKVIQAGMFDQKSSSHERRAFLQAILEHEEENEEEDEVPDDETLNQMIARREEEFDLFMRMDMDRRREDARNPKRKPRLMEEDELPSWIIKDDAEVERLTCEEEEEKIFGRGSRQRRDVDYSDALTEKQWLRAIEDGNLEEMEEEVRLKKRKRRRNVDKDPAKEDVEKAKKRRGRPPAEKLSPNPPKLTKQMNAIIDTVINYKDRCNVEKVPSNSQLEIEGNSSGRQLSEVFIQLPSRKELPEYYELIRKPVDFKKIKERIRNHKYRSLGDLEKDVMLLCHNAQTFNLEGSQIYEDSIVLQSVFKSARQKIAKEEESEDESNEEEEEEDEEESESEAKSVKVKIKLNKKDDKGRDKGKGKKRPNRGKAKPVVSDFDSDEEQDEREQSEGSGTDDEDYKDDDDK

[2] = molecular target: FL-SMARCA4 (Homo sapiens, UniProt P51532); experiment: SMARCA4 ATPase activity assay (ADP-Glo, chicken mononucleosome substrate)
FL-SMARCA4, sequence (P51532 whole entry): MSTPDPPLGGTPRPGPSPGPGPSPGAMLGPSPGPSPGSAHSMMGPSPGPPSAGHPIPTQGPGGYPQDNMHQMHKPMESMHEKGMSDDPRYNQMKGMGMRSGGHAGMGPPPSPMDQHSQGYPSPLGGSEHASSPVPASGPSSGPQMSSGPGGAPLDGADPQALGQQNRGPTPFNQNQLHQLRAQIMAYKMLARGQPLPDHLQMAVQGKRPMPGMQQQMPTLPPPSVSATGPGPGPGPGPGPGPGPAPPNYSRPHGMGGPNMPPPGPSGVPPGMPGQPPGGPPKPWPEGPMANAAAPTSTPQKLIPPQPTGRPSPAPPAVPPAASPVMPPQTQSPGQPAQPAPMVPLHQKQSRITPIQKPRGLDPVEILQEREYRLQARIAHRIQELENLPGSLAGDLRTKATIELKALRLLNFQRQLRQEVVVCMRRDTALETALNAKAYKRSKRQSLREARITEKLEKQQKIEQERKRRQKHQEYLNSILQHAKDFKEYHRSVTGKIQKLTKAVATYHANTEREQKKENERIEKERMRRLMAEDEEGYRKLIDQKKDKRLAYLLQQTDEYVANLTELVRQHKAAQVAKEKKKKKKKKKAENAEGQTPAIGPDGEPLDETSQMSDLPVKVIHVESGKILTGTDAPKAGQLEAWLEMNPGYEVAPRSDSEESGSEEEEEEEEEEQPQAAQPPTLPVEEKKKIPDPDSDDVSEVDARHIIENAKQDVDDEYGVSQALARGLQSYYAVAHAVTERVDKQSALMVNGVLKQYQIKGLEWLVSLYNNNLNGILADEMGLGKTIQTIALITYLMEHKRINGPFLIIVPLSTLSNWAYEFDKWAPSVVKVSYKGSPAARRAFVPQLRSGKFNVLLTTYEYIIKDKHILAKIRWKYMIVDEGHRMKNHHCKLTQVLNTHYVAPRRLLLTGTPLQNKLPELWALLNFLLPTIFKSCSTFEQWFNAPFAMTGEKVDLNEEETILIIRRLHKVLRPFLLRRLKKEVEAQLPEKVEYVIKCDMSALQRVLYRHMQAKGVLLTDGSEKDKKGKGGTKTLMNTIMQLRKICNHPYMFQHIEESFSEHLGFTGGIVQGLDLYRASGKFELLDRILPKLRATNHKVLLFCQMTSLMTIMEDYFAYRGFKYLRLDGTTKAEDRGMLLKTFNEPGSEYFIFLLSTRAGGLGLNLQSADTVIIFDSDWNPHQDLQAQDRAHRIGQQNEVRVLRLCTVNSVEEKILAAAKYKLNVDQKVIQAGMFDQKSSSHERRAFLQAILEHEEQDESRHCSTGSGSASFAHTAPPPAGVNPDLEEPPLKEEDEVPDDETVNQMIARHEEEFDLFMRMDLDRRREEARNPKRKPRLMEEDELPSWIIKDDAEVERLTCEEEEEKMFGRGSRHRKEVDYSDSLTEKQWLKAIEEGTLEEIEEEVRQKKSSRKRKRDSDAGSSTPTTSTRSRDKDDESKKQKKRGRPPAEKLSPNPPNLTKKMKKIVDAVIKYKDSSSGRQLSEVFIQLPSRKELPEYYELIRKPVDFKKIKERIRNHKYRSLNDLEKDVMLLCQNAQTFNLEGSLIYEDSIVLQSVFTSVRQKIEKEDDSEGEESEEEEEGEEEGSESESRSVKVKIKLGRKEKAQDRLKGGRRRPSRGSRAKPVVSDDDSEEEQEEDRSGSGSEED

[3] = Table 3c.1, ATPase assay, enzyme 5 nM, chicken mononucleosome 10 nM, 30 min preincubation
[4] = FL-SMARCA4 IC>50, Table 3c.2, ATPase assay, enzyme 5 nM, ATP 250 uM, chicken mononucleosome 10 nM, 30 min preincubation
[5] = Table 3.1, ATPase assay, enzyme 5 nM, chicken mononucleosome 10 nM, 30 min preincubation
[6] = FL-SMARCA4 IC50, Table 3.2, ATPase assay, enzyme 5 nM, ATP 250 uM, chicken mononucleosome 10 nM, 30 min preincubation
[7] = Table 3a.1, SMARCA2 5 nM, mononucleosome 10 nM
[8] = FL-SMARCA4 IC50, Table 3a.2, SMARCA4 5 nM, ATP 250 uM, mononucleosome 10 nM
[9] = Table 3d.1, ATPase assay, enzyme 5 nM, chicken mononucleosome 10 nM, 30 min preincubation, read-out: FL-SMARCA2 IC>50
[10] = Table 3b.1, SMARCA2 5 nM, mononucleosome 10 nM
[11] = FL-SMARCA4 IC50, Table 3b.2, SMARCA4 5 nM, ATP 250 uM, mononucleosome 10 nM

| IC50 [1, 5] | IC50 [2, 6] | IC50 [1, 7] | IC50 [2, 8] | other results | Compound |
| --- | --- | --- | --- | --- | --- |
| – | – | – | – | IC50 [1, 3]: > 50 µM; IC50 [2, 4]: > 50 µM | N#Cc1sc(C(=O)Nc2cc(F)c(=O)n(CC(F)F)c2)cc1C#CC1COC1 [Compound 93c] |
| 0.343 µM | 1.07 µM | – | – | – | CCn1cc(NC(=O)c2cc(Cl)n[nH]2)cc(F)c1=O [Compound 165] |
| – | – | > 50 µM | > 50 µM | – | CCn1cc(NC(=O)c2ccc(C(F)(F)F)cn2)ccc1=O [Compound 58a] |
| – | – | – | – | IC50 [1, 9]: 34.6 µM; IC50 ([2]; FL-SMARCA4 IC50): > 50 µM | CSc1cc(NC(=O)c2cc(F)c(Cl)s2)cn(CC(F)F)c1=O [Compound 50d] |
| 2.04 µM | 5.6 µM | – | – | – | CCn1cc(NC(=O)c2cc(C#N)[nH]n2)ccc1=O [Compound 175] |
| 9.42 µM | 14.3 µM | – | – | – | CCn1cc(NC(=O)c2cc(Cl)c(Cl)s2)cc(NCCN(C)C)c1=O [Compound 114] |
| > 50 µM | > 50 µM | – | – | – | CCn1cc(NC(=O)c2ccc(Cl)o2)ccc1=O [Compound 20] |
| > 50 µM | > 50 µM | – | – | – | CCn1cc(NC(=O)c2csc(NC)n2)ccc1=O [Compound 209] |
| > 50 µM | > 50 µM | – | – | – | CCc1cc(NC(=O)c2cc(Cl)c(Cl)s2)cn(C)c1=O [Compound 185] |
| – | – | – | – | IC50 [1, 10]: > 50 µM; IC50 [2, 11]: > 50 µM | CCn1cc(NC(=O)c2cc(Cl)cc(Cl)c2)ccc1=O [Compound 5b] |
| 21.6 µM | 27.4 µM | – | – | – | O=C(Nc1cc(NCCn2ccnc2)c(=O)n(CCF)c1)c1cc(Cl)c(Cl)s1 [Compound 263] |
| > 50 µM | > 50 µM | – | – | – | CCn1cc(C(=O)Nc2cc(Cl)c(Cl)s2)ccc1=O [Compound 79] |
| – | – | 14.3 µM | 46.7 µM | – | O=C(Nc1cc(F)c(=O)n(CCF)c1)N1CCC(Cl)=C(Cl)C1 [Compound 60a] |
| – | – | – | – | IC50 [1, 3]: 24.1 µM; IC50 [2, 4]: > 50 µM | O=C(Nc1cc(F)c(=O)n(CC(F)F)c1)c1nsc(Cl)n1 [Compound 76c] |
| > 50 µM | > 50 µM | – | – | – | CCn1cc(NC(=O)c2ccc(CN(C)C)s2)ccc1=O [Compound 88] |
| 4.12 µM | 18.6 µM | – | – | – | O=C(Nc1cc(Cl)c(=O)n(CC(F)(F)F)c1)c1cc(Cl)c(Cl)s1 [Compound 102] |
| – | – | > 50 µM | > 50 µM | – | CO[C@@H]1CN[C@H](C(=O)Nc2cc(Br)c(=O)n(C)c2)C1 [Compound 9a] |

| IC50 [1, 5] | IC50 [2, 6] | IC50 [1, 7] | IC50 [2, 8] | other results | Compound |
| --- | --- | --- | --- | --- | --- |
| – | – | > 50 µM | > 50 µM | – | CN1CC(C(=O)Nc2cc(F)c(=O)n(CCF)c2)CCC1=O (centres unmarked) [Compound 49a] |
| – | – | > 50 µM | > 50 µM | – | CCn1cc(NC(=O)c2cn3cc(Cl)c(F)cc3n2)ccc1=O [Compound 45a] |
| – | – | > 50 µM | > 50 µM | – | CCn1cc(NC(=O)c2ccc3c(n2)OCO3)ccc1=O [Compound 37a] |
| – | – | – | – | IC50 [1, 9]: 48.1 µM; IC50 ([2]; FL-SMARCA4 IC50): > 50 µM | CCn1cc(NC(=O)c2cc(Cl)c(Cl)s2)c(F)cc1=O [Compound 31d] |
| – | – | – | – | IC50 [1, 3]: 0.0407 µM; IC50 [2, 4]: 0.172 µM | O=C1CC(C#Cc2cc(C(=O)Nc3cc(F)c(=O)n(CC(F)F)c3)sc2Cl)CCN1 (centres unmarked) [Compound 105c] |
| – | – | – | – | IC50 [1, 9]: > 50 µM; IC50 ([2]; FL-SMARCA4 IC50): > 50 µM | CCn1nc(NC(=O)c2cc(Cl)c(Cl)s2)ccc1=O [Compound 19d] |
| – | – | > 50 µM | > 50 µM | – | CCn1cc(NC(=O)c2cnc3c(Cl)cccn23)ccc1=O [Compound 29a] |
| – | – | – | – | IC50 [1, 10]: 0.645 µM; IC50 [2, 11]: 4.78 µM | O=C(Nc1cc(F)c(=O)n(CCF)c1)c1ccc(Cl)c(Cl)c1 [Compound 17b] |
| – | – | – | – | IC50 [1, 3]: > 50 µM; IC50 [2, 4]: > 50 µM | CS(=O)(=O)c1cc(NC(=O)c2cc(F)c(Cl)s2)cn(CC(F)F)c1=O [Compound 11c] |
| – | – | 26.8 µM | > 50 µM | – | CCn1cc(NC(=O)c2cnc(Cl)c(Cl)c2)ccc1=O [Compound 16a] |
| – | – | – | – | IC50 [1, 3]: > 50 µM; IC50 [2, 4]: > 50 µM | Cn1ccnc1-c1cc(NC(=O)c2cc(Cl)c(C(F)(F)F)s2)cn(CC(F)F)c1=O [Compound 88c] |
| – | – | > 50 µM | > 50 µM | – | CCn1cc(NC(=O)c2ccc3cn[nH]c3n2)ccc1=O [Compound 38a] |
| – | – | > 50 µM | > 50 µM | – | CO[C@H]1C[C@@H](C(=O)Nc2cc(Cl)c(=O)n(C)c2)N(C)C1 [Compound 11a] |
| – | – | > 50 µM | > 50 µM | – | CCn1cc(NC(=O)[C@H]2CCC(=O)N(C)[C@@H]2c2ccncc2)ccc1=O [Compound 5a] |
| – | – | – | – | IC50 [1, 10]: > 50 µM; IC50 [2, 11]: > 50 µM | CCn1cc(NC(=O)[C@@H]2CCC[C@@H](Cl)C2)ccc1=O [Compound 14b] |
| 3.12 µM | 21.9 µM | – | – | – | Cn1c(C(=O)Nc2cc(Cl)c(=O)n(CCF)c2)cnc1Cl [Compound 194] |
| 0.094 µM | 0.52 µM | – | – | – | O=C(Nc1cc(F)c(=O)n(CC(F)F)c1)c1cc(Cl)c(C(F)F)s1 [Compound 296] |
